This note sets out measurements from PMC3324139 (2012).

Assay [1] concerns 76 mer-DNA aptamer (DNA, aptamer) CGTACGGAATTCGCTAGCCCCCCGGCAGGCCACGGCTTGGGTTGGTCCCACTGCGCGTGGATCCGAGCTCCACGTG
Briefly: competitive enzyme-linked aptamer assay (ELAA). As to conditions: sodium phosphate 10 mM, no added NaCl, no Mg2+; pH 7.2, RT; TC-HRP displaced; relative to TC = 100% at 50% B/B0; apparent.

For assay [2], the system named is 57 mer-RNA aptamer (RNA, aptamer) GAGCCUAAAACAUACCAGAGAAAUCUGGAGAGGUGAAGAAUACGACCACCUAGGCUC
The assay is described as follows: competitive enzyme-linked aptamer assay (ELAA). As to conditions: sodium phosphate 10 mM, no added NaCl, no Mg2+; pH 7.2, RT; TC-HRP displaced; relative to TC = 100% at 50% B/B0; apparent.

As for `CN(C)[C@@H]1C(=O)C(C(N)=O)=C(O)[C@@]2(O)C(=O)C3=C(O)c4c(O)cccc4[C@@](C)(O)[C@H]3[C@H](O)[C@@H]12`, the Cross-reactivity turned out to be 129.7% in assay [1] and 35.3% in assay [2].
